# According to PMC10305617, “Sesquiterpene Coumarin Ethers with Selective Cytotoxic Activities from the Roots of Ferula huber-morathii Peşmen (Apiaceae) and Unequivocal Determination of the Absolute Stereochemistry of Samarcandin” (Pharmaceuticals, 2023):
# Key:
# Format in all cases: cell-based, Human
# MCF-7 [1] = experiment: MTS cell viability (cytotoxic activity) assay, MCF-7; conditions: MCF-7, MTS, 72 h; root extracts
# MCF-7 [2] = experiment: as above; conditions: MCF-7, MTS, 72 h; mean ± SD, at least three experiments
# Excerpt: (§1) Human colorectal cancer (COLO 205, CCL-222), breast cancer (MCF-7, HTB-22), chronic myelogenous leukemia (K-562, CCL-243), and umbilical vein/vascular endothelium (HUVEC, CRL-1730) cell lines were obtained from the American Type Culture Collection. The COLO 205, MCF-7, K-562, and HUVEC cell lines were maintained in Roswell Park Memorial Institute ([…], Wisent, Montreal, QC, CANADA), Eagle′s Minimum Essential Medium (EMEM, Wisent, Montreal, QC, CANADA), Iscove’s Modified Dulbecco’s Medium (IMDM, Wisent, Montreal, QC, CANADA), and Dulbecco′s Modified Eagle Medium (DMEM, Wisent, Montreal, QC, CANADA) supplemented with 10% fetal bovine serum (Capricorn, Ebsdorfergrund, Germany), 100 U/mL penicillin, and 100 µg/mL streptomycin (Wisent, Montreal, QC, CANADA), respectively. All of the cell lines were cultured at 37 °C in a humidified atmosphere containing 5% CO2.
# (§2) A 3-[4,5-dimethylthiazol-2-yl]-5-[3-carboxymethoxyphenyl]-2-[4-sulfophenyl]-2H-tetrazolium, inner salt (MTS) cell viability assay was performed to evaluate the cytotoxic activities of the sesquiterpene coumarin ethers isolated from Ferula huber-morathii. HUVEC (1 × 10^4), COLO 205 (3 × 10^4), K-562 (3 × 10^4), and MCF7 (5 × 10^4) were plated in 96-well plates. Then, 24 h later, the tested compounds were dissolved in DMSO, and the cells were exposed to the different concentrations (131.58–1.028 µM) of the compounds for 72 h. Cisplatin and doxorubicin were used as a positive control. Next, an MTS/phenazine methosulfate (PMS) (Promega, Madison, WI, USA and Sigma, St. Louis, MO, USA respectively) mixture was added to each well and incubated for 1–4 h at 37 °C. The absorbance was read on a microplate reader (Biotek, Winooski, VT, USA) at 490 nm. The cytotoxic activities of the compounds were expressed as an IC50 value. The % inhibition of cell proliferation was calculated using the formula: % Inhibition = [1-(A490test/A490cont)] × 100, where A490test = absorbance of the test sample and A490cont = absorbance of the control sample [88]. The values of the 50% inhibition of the cell proliferation (IC50) were calculated by locating the x-axis values corresponding to one-half of the absorbance values of the sample.
# K-562 [3] = experiment: MTS cell viability (cytotoxic activity) assay, K-562; conditions: K-562, MTS, 72 h; root extracts
# HUVEC = experiment: MTS cell viability (cytotoxic activity) assay, non-cancerous HUVEC; conditions: 72 h, mean ± SD, at least three experiments
# Excerpt: as §1, §2
# caspase-8 = experiment: Caspase-8 colorimetric activity assay in COLO 205 cells; conditions: COLO 205, 24 h, highest concentration (131.58 µM)
# Experimental: (§3) The caspase-3, -8, and -9 activities were detected by following the protocol of the caspase-3, -8, -9 colorimetric assay kits (Biovision, K106, K113, K119, Mountain View, CA, USA). The cells treated with mogoltadone (5) for 24 h were harvested and lysed with a RIPA (50 mM Tris-HCl, pH 8.0, 150 mM NaCl, 1% Nonidet P-40, 0.5% sodium deoxycholate and 0.1% SDS) cell lysis buffer. The lysed cells were centrifuged at 22,000 g for 30 min and the supernatant was collected in a tube. The samples (200 µg protein) were incubated with caspase substrates (final concentration, 200 µM) at 37° C for 2 h and read on a microplate reader at 405 nm. The fold-increase in enzyme activity was detected by comparison with the untreated control.
# K-562 [4] = experiment: MTS cell viability (cytotoxic activity) assay, K-562; conditions: K-562, MTS, 72 h; mean ± SD, at least three experiments
# Excerpt: as §1, §2
# COLO 205 = experiment: MTS cell viability (cytotoxic activity) assay, COLO 205; conditions: COLO 205, MTS, 72 h; mean ± SD, at least three experiments
# Excerpt: as §1, §2
# caspase-3 = experiment: Caspase-3 colorimetric activity assay in COLO 205 cells; conditions: COLO 205, 24 h, highest concentration (131.58 µM)
# Experimental: as §3
# caspase-9 = experiment: Caspase-9 colorimetric activity assay in COLO 205 cells; conditions: COLO 205, 24 h, highest concentration (131.58 µM)
# Experimental: as §3
compound,measurement,setting,value
"N.N.[Cl][Pt][Cl] [Cisplatin, reference compound]",IC50 (µg/mL) MCF-7,MCF-7 [1],35.52 ± 0.76 µg/mL
same,IC50,MCF-7 [2],64.2 ± 5.25 µM
same,IC50 (µg/mL) K-562,K-562 [3],9.73 ± 0.30 µg/mL
same,IC50,HUVEC,40.7 ± 1.12 µM
same,increase in caspase-8 activity compared with the control,caspase-8,1.8 fold
same,IC50,K-562 [4],8.1 ± 0.25 µM
same,IC50,COLO 205,112 ± 3.11 µM
same,increase in caspase-3 activity compared with the control,caspase-3,6.73 fold
same,increase in caspase-9 activity compared with the control,caspase-9,2.07 fold
